Results: US20250154152A1, “INHIBITORS OF NAEGLERIA FOWLERI” (Wisconsin Alumni Research Foundation, priority 2023, published 2025)
Where two headings read alike, the source gives them in different places.

System: N. fowleri strain Nf69 (ATCC 30215) trophozoites
Assay: Determination of EC50 values against Naegleria fowleri (growth inhibition, CellTiter Glo, 48 h)
Assay type: cell-based
Outline: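 Axenic Nf69 trophozoites in Nelson's complete medium with 10% FBS exposed to compound, initially 20–0.375 μM, for 48 h at 37 °C, 5% CO2. Viability read by CellTiter-Glo luminescence; % growth inhibition versus controls, triplicate averages fitted for EC50, with lower ranges used for very potent compounds.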

[1] = ATCC30215, N. fowleri Nf69 trophozoites, 48 h culture, 37° C., CellTiter Glo luminescence, read-out: EC50 uM against N. fowleri
[2] = ATCC30215, 48 h, read-out: EC50 uM against N. fowleri

Row | Structure (SMILES) | EC50 [1] [µM] | also measured
1 | Cn1c([C@@H]2CCCN(Cc3ccccn3)C2)nc2cc(Cl)c(Cl)cc2c1=O [Compound R-14w, (R)-6,7-dichloro-3-methyl-2-(1-(pyridin-2-ylmethyl)piperidin-3-yl)quinazolin-4(3H)-one] | > 10 | 
2 | Cn1c([C@@H]2CCCN(Cc3cnccn3)C2)nc2cc(Cl)c(Cl)cc2c1=O [Compound R-14x, (R)-6,7-dichloro-3-methyl-2-(1-(pyrazin-2-ylmethyl)piperidin-3-yl)quinazolin-4(3H)-one] | > 10 | 
3 | Cn1c([C@@H]2CCCN(CCO)C2)nc2cc(Cl)c(Cl)cc2c1=O [Compound R-14z, (R)-6,7-dichloro-2-(1-(2-hydroxyethyl)piperidin-3-yl)-3-methylquinazolin-4(3H)-one] | > 10 | 
4 | CC(C)N1CCC[C@H](c2nc3cc(Cl)c(Cl)cc3c(=O)n2C)C1 [Compound S-14a, (S)-6,7-dichloro-2-(1-isopropylpiperidin-3-yl)-3-methylquinazolin-4(3H)-one] | > 10 | 
5 | Cn1c([C@H]2CCCN(CC3CCOCC3)C2)nc2cc(Cl)c(Cl)cc2c1=O [Compound S-14c, (S)-6,7-dichloro-3-methyl-2-(1-((tetrahydro-2H-pyran-4-yl)methyl)piperidin-3-yl)quinazolin-4(3H)-one] | > 10 | 
6 | Cn1c([C@H]2CCCN(CCN3CCCC3)C2)nc2cc(Cl)c(Cl)cc2c1=O [Compound S-14cc, (S)-6,7-dichloro-3-methyl-2-(1-(2-(pyrrolidin-1-yl)ethyl)piperidin-3-yl)quinazolin-4(3H)-one] | > 10 | 
7 | Cn1c([C@H]2CCCN(CC3COC3)C2)nc2cc(Cl)c(Cl)cc2c1=O [Compound S-14e, (S)-6,7-dichloro-3-methyl-2-(1-(oxetan-3-ylmethyl)piperidin-3-yl)quinazolin-4(3H)-one] | > 10 | 
8 | Cn1c([C@H]2CCCN(CCO)C2)nc2cc(Cl)c(Cl)cc2c1=O [Compound S-14y, (S)-6,7-dichloro-2-(1-(2-hydroxyethyl)piperidin-3-yl)-3-methylquinazolin-4(3H)-one] | > 10 | 
9 | CCCCCCCCCCCCCCCCOP(=O)([O-])OCC[N+](C)(C)C [Miltefosine, miltefosine, reference compound] |  | EC50 (ATCC30215, positive control, N. fowleri Nf69 trophozoites, 48 h, CellTiter Glo, read-out: N. fowleri EC50): 35.7 ± 9.1 µM
10 | CN1CCC[C@@H]2c3nc4ccc(Cl)cc4c(=O)n3CC[C@H]21 [trans-10a-ent 1, (4aR,13bS)-10-chloro-4-methyl-1,2,3,4,4a,5,6,13b-octahydro-8H-[1,6]naphthyridino[5,6-b]quinazolin-8-one] | 0.1 to 1 | 
11 | CN1CCC[C@H]2c3nc4ccc(Cl)cc4c(=O)n3CC[C@@H]21 [trans-10b-ent-2, (4aS,13bR)-10-chloro-4-methyl-1,2,3,4,4a,5,6,13b-octahydro-8H-[1,6]naphthyridino[5,6-b]quinazolin-8-one] |  | EC50 [2]: 1 to 10 µM
12 | CN1CCC[C@@H]2c3nc4ccc(C(F)(F)F)cc4c(=O)n3CC[C@H]21 [trans-10c-ent-1, (4aR,13bS)-4-methyl-10-(trifluoromethyl)-1,2,3,4,4a,5,6,13b-octahydro-8H-[1,6]naphthyridino[5,6-b]quinazolin-8-one] | 0.1 to 1 | 
13 | CN1CCC[C@H]2c3nc4ccc(C(F)(F)F)cc4c(=O)n3CC[C@@H]21 [trans-10d-ent-2, (4aS,13bR)-4-methyl-10-(trifluoromethyl)-1,2,3,4,4a,5,6,13b-octahydro-8H-[1,6]naphthyridino[5,6-b]quinazolin-8-one] |  | EC50 [2]: 1 to 10 µM
14 | CN1CCC[C@@H]2c3nc4cc(Cl)c(Cl)cc4c(=O)n3CC[C@H]21 [trans-10e-ent-1, (4aR,13bS)-10,11-dichloro-4-methyl-1,2,3,4,4a,5,6,13b-octahydro-8H-[1,6]naphthyridino[5,6-b]quinazolin-8-one] | 0.0001 to 0.1 | 
15 | CN1CCC[C@H]2c3nc4cc(Cl)c(Cl)cc4c(=O)n3CC[C@@H]21 [trans-10f-ent-2, (4aS,13bR)-10,11-dichloro-4-methyl-1,2,3,4,4a,5,6,13b-octahydro-8H-[1,6]naphthyridino[5,6-b]quinazolin-8-one] |  | EC50 [2]: 1 to 10 µM

The next lines start with results.

Row | EC50 [1] [µM] | Structure (SMILES) | also measured
16 | 0.1 to 1 | Cn1c([C@@H]2CCCN(CCN3CCCC3)C2)nc2cc(Cl)c(Cl)cc2c1=O [Compound R-14dd, (R)-6,7-dichloro-3-methyl-2-(1-(2-(pyrrolidin-1-yl)ethyl)piperidin-3-yl)quinazolin-4(3H)-one] | 
17 | 0.1 to 1 | Cn1c([C@@H]2CCCN(CC3COC3)C2)nc2cc(Cl)c(Cl)cc2c1=O [Compound R-14f, (R)-6,7-dichloro-3-methyl-2-(1-(oxetan-3-ylmethyl)piperidin-3-yl)quinazolin-4(3H)-one] | 
18 | > 10 | CC(C)CN1CCC[C@@H](c2nc3cc(Cl)c(Cl)cc3c(=O)n2C)C1 [Compound R-14g, (R)-6,7-dichloro-2-(1-isobutylpiperidin-3-yl)-3-methylquinazolin-4(3H)-one] | 
19 | > 10 | Cn1c([C@@H]2CCCN(CC(C)(C)O)C2)nc2cc(Cl)c(Cl)cc2c1=O [Compound R-14h, (R)-6,7-dichloro-2-(1-(2-hydroxy-2-methylpropyl)piperidin-3-yl)-3-methylquinazolin-4(3H)-one] | 
20 | 1 to 10 | Cn1c([C@@H]2CCN(CC3COC3)C2)nc2cc(Cl)c(Cl)cc2c1=O [Compound R-14j, (R)-6,7-dichloro-3-methyl-2-(1-(oxetan-3-ylmethyl)pyrrolidin-3-yl)quinazolin-4(3H)-one] | 
21 | > 10 | COCCn1c([C@@H]2CCCN(CC3COC3)C2)nc2cc(Cl)c(Cl)cc2c1=O [Compound R-14k, (R)-6,7-dichloro-3-(2-methoxyethyl)-2-(1-(oxetan-3-ylmethyl)piperidin-3-yl)quinazolin-4(3H)-one] | 
22 | > 10 | CN(C)CCn1c([C@@H]2CCCN(CC3COC3)C2)nc2cc(Cl)c(Cl)cc2c1=O [Compound R-14l, (R)-6,7-dichloro-3-(2-(dimethylamino)ethyl)-2-(1-(oxetan-3-ylmethyl)piperidin-3-yl)quinazolin-4(3H)-one] | 
23 | > 10 | O=c1c2cc(Cl)c(Cl)cc2nc([C@@H]2CCCN(CC3COC3)C2)n1CCN1CCOCC1 [Compound R-14m, (R)-6,7-dichloro-3-(2-morpholinoethyl)-2-(1-(oxetan-3-ylmethyl)piperidin-3-yl)quinazolin-4(3H)-one] | 
24 | > 10 | Cn1c([C@@H]2CCCN(CC3COC3)C2)nc2cnc(Cl)cc2c1=O [Compound R-14n, (R)-6-chloro-3-methyl-2-(1-(oxetan-3-ylmethyl)piperidin-3-yl)pyrido[3,4-d]pyrimidin-4(3H)-one] | 
25 | > 10 | Cn1c([C@@H]2CCCN(CC3COC3)C2)nc2ccc(C#N)cc2c1=O [Compound R-14o, (R)-3-methyl-2-(1-(oxetan-3-ylmethyl)piperidin-3-yl)-4-oxo-3,4-dihydroquinazoline-6-carbonitrile] | 
26 | > 10 | Cn1c([C@@H]2CCCN(CC3COC3)C2)nc2ccc(Cl)cc2c1=O [Compound R-14p, (R)-6-chloro-3-methyl-2-(1-(oxetan-3-ylmethyl)piperidin-3-yl)quinazolin-4(3H)-one] | 
27 | > 10 | Cn1c([C@@H]2CCCN(CC3COC3)C2)nc2ccc(F)cc2c1=O [Compound R-14q, (R)-6-fluoro-3-methyl-2-(1-(oxetan-3-ylmethyl)piperidin-3-yl)quinazolin-4(3H)-one] | 
28 | > 10 | Cn1c([C@@H]2CCCN(CC3COC3)C2)nc2cc(F)ccc2c1=O [Compound R-14r, (R)-7-fluoro-3-methyl-2-(1-(oxetan-3-ylmethyl)piperidin-3-yl)quinazolin-4(3H)-one] | 
29 | > 10 | COc1ccc2nc([C@@H]3CCCN(CC4COC4)C3)n(C)c(=O)c2c1 [Compound R-14s, (R)-6-methoxy-3-methyl-2-(1-(oxetan-3-ylmethyl)piperidin-3-yl)quinazolin-4(3H)-one] | 
30 | > 10 | Cn1c([C@@H]2CCCN(CC3COC3)C2)nc2ccc(C(F)(F)F)cc2c1=O [Compound R-14t, (R)-3-methyl-2-(1-(oxetan-3-ylmethyl)piperidin-3-yl)-6-(trifluoromethyl)quinazolin-4(3H)-one] | 
31 | > 10 | Cn1c([C@@H]2CCCN(Cc3ccncc3)C2)nc2cc(Cl)c(Cl)cc2c1=O [Compound R-14u, (R)-6,7-dichloro-3-methyl-2-(1-(pyridin-4-ylmethyl)piperidin-3-yl)quinazolin-4(3H)-one] | 
32 | > 10 | Cn1c([C@@H]2CCCN(Cc3cccnc3)C2)nc2cc(Cl)c(Cl)cc2c1=O [Compound R-14v, (R)-6,7-dichloro-3-methyl-2-(1-(pyridin-3-ylmethyl)piperidin-3-yl)quinazolin-4(3H)-one] | 
